For experiment [1], the system named is HCT-116 (Human colorectal cells). In words: MTT cytotoxicity assay, HCT-116. It counts as cell-based. As to conditions: for IC50: MTT, 48 h, no irradiation, mean ± SD of three experiments. Here is the method:
(§1) Cell Lines. The following in vitro human cancer cell lines were used: HCT-116 (Human colorectal cells), human KB (human nasopharyngeal carcinoma cells), MGC-803 (human lung adenocarcinoma cell line), HUVEC (Human Umbilical Vein Endothelial Cells). The cell lines (HCT-116, KB, MGC-803 and HUVEC) were purchased from the Cell Resource Center of Shanghai Institutes for Biological Sciences, the Academy of Sciences of China.
(§2) Cell Culture. HCT-116, human KB, MGC-803 and HUVEC cells were cultured in Dulbecco Modified Eagle Medium (DMEM; HyClone, Los Angeles, CA, USA), containing 4.0 mM L-Glutamine and 4500 mg/L Glucose, supplemented with 10% (v/v) foetalbovine serum (FBS; HyClone). The cell culturemedia was supplemented with penicillin/streptomycin at 100 Units/mL as adherent monolayers. Cell cultures were kept in a humidified incubator with 5% CO2 at 37 °C. Stock solutions were prepared in dimethyl sulfoxide (DMSO) and further dilutions were made with fresh culture medium. The concentration of DMSO in the final culture medium was 1%, which had no effect on the cell viability.
(§3) MTT Assay. Chemosensitivity was assessed using 3-(4,5-dimethylthiazol-2-yl)-2,5-diphenyl tetrazolium bromide (MTT) assay. Briefly, exponentially growing HCT-116 (3000–4000 cells/well), human KB (2000–3000 cells/well) and MGC 803 (2000–3000 cells/well) were seeded into 96-well plates and treated with indicated concentrations of samples for 48 h, and then […] of MTT (10 mg/mL) was added. After incubation for 4 h at 37 °C, the purple formazan crystals (i.e., a reduced form of MTT) generated from viable cells were dissolved by adding 100 μL DMSO in each well. The plates were swirled gently for 10 min to dissolve the precipitate, and quantified by measuring the optical density (OD) of the plates at a wavelength of 490 nm on plate reader (TECAN infinite M1000). Each concentration was repeated in three wells and the same experimental conditions were provided for all compounds and MTT analysis was repeated three times for each cell line.

Experiment [2] deals with CT-DNA. In words: Circular dichroism spectra of CT-DNA. It counts as binding, calf. As to conditions: [compound]/[DNA] 1:10; 1.5 × 10^−4 M DNA, 1.5 × 10^−5 M compound. As for the experimental part:
CD absorption spectra of DNA were measured in TBS at a 100 nm/min scan rate in the wavelength range from 200 to 500 nm, with 1.5 × 10^−4 M DNA in the absence and presence of each compound of 1.5 × 10^−5 M, respectively. The CD signal of TBS was taken as the background and subtracted from the spectra. All the spectroscopic experiments were performed at 25 °C.
For orientation: Circular dichroism is the unequal absorption of left and right circularly polarised light.

Experiment [3] concerns MGC-803 (human lung adenocarcinoma cell line). Description: MTT cytotoxicity assay, MGC-803. It counts as cell-based. As to conditions: 48 h, no irradiation, mean ± SD of three experiments. As for the experimental part: as §1, §2, §3
The subject of experiment [4] is HUVEC (Human Umbilical Vein Endothelial Cells). Description: MTT cytotoxicity assay, HUVEC normal cells. The conditions noted are these: no irradiation, mean ± SD of three experiments. It counts as cell-based. As for the experimental part:
as §1, §2, §3
(Tetrazolium assays rely on reduction of a dye to a coloured formazan, in cell work by metabolically active cells.)

For a further experiment, the system named is GelRed/CT-DNA. In words: GelRed-DNA competitive binding (fluorescence quenching). The conditions noted are these: I0/I vs [Q]; [GelRed]/[DNA] = 1:10, ex 350 nm, em 590 nm. Further details: species or system calf.
Experiment [5] deals with CT-DNA. Description: Spectrofluorimetric titration with CT-DNA (Stern-Volmer and binding constants). Further details: species or system calf. The conditions noted are these: from F0/F-1 vs [DNA]; Tris-HCl buffer pH 7.2. As for the experimental part: The DNA binding properties of compounds 8a–8j were evaluated based on their affinity or interaction with CT-DNA, measured with fluorescence spectrometric titration.
The calibration curve for determination of DNA was constructed by adding different proportion of DNA to a 2.0 × 10^−3 M compound 8j solution (pH = 7.2 Tris-HCl buffer). […] [Q] is the concentration of quencher. KSV is the Stern-Volmer constant and KQ is the bimolecular quenching rate constant. τ0 is the lifetime of the fluorophore in the absence of quencher and for most biomolecules τ0 is about 10^−8 s. The Stern-Volmer constant, KSV, for compound 8j has been determined from the plot of F0/F-1 vs. [DNA] (see Figure 2) and found to be 5.11 × 10^2 M^−1.
When small molecules binding independently to a set of equivalent sites on a macromolecule, the equilibrium between free and bound molecules is given by the equation [28]: (2) lg (F0/F-1) = lgKb + nlg[Q] where Kb and n are the binding constant and the number of binding sites, respectively, which could be got from the curve of lg(F0/F-1) vs. lg[Q]. The plot of lg(F0/F-1) vs. lg[DNA] has been shown in Figure 3 for compound 8j and indicates a simple binding process for the compound.
All fluorescence experiments were carried out on a Perkin-Elmer LS50B luminescence spectrometer. Fluorescence spectra were measured at rt using quartz cells of 1cm path. To the solutions of the drugs (2.0 × 10^−3 M) in 2.5 mL Tris-HCl buffer (pH = 7.2) were added aliquots of CT-DNA (2.0 × 10^−3 M) solution containing drugs (2.0 × 10^−3 M) in 2.5 mL Tris-HCl buffer (pH = 7.2). This operation ensured that the concentration of CT-DNA increased gradually from 0 to 360 µM, while the concentrations of drugs were kept constant. The mixing was achieved by stirring for 10min. Then, the corresponding fluorescence spectra were measured (ex 325 nm, ex/em 1.5 nm/1.5 nm). Binding constants were derived from the modified.

The text below walks through data of publication PMC6331810, “Novel Coumarin-Containing Aminophosphonatesas Antitumor Agent: Synthesis, Cytotoxicity, DNA-Binding and Apoptosis Evaluation” (Molecules, 2015).

By IC50 is commonly meant the concentration needed to halve the response being measured. Read a low IC50 as inhibition by little substance. Regarding `CCOP(=O)(OCC)C(NC(=O)CCOc1ccc2c(C)cc(=O)oc2c1)c1cccc(Br)c1` (stereo not drawn) [Compound 8f, Diethyl(3-(4-methyl-2-oxo-2H-chromen-7-yloxy)propanamido)(3-bromophenyl)methylphospho-nate], the IC50 in experiment [1] was 25.8 ± 1.21 µM; in experiment [3] it was 74.2 ± 3.36 µM; in experiment [4] it was above 100 µM. For the same compound, in the experiment with CT-DNA [2], the “Negative AI decrease (CD absorption peak of CT-DNA at 247 nm)” value is reported as 26.9%. For the same compound, in the experiment with CT-DNA [2], the “Positive AI decrease (CD absorption peak of CT-DNA at 281 nm)” value was 23.1%. In addition, the “Kq (quenching constant of GelRed bound to DNA)” value in the experiment with GelRed/CT-DNA worked out at 1730 M⁻¹. Also, the “KSV (Stern-Volmer constant)” value in the experiment with CT-DNA [5] is 412 M⁻¹.
As for `CCOP(=O)(OCC)C(C)(NC(=O)CCOc1ccc2c(C)cc(=O)oc2c1)c1ccccc1` (stereo not drawn) [Compound 8j, Diethyl 1-(3-(4-methyl-2-oxo-2H-chromen-7-yloxy)propanamido)-1-phenylethylphosphonate], the “Fold of IC50 against HCT-116 relative to unsubstituted parent compound” value in experiment [1] (HCT-116, vs 4-MU) was “about 12 fold”. Moreover, the IC50 in experiment [1] (Homo sapiens, HCT-116, light or radiation study) was 8.68 ± 3.2 µM; in experiment [3] (Homo sapiens, MGC-803, light or radiation study), 14.6 ± 1.11 µM; in experiment [4] (Homo sapiens, HUVEC, light or radiation study), above 100 µM. Also, the “Negative AI decrease (CD absorption peak of CT-DNA at 247 nm)” value in the experiment on CT-DNA [2] turned out to be 30.4%. The “Positive AI decrease (CD absorption peak of CT-DNA at 281 nm)” value in the experiment on CT-DNA [2] was found to be 26.82%. In addition, the “Kq (quenching constant of GelRed bound to DNA)” value in the experiment with GelRed/CT-DNA was 2350 M⁻¹. Besides, the “KSV (Stern-Volmer constant)” value in the experiment with CT-DNA [5] amounted to 511 M⁻¹.
